Test system: cell mass derived from the cancer tissue (surgical specimens of human colon cancer, Example 2)
Assay: Drug sensitivity test with cell masses embedded in collagen gel
Format: cell-based
Settings: 5-FU at 0.01, 0.1, 1, 10 and 100 μg/ml; day 8 vs day 0 of culture; FIG. 4
Protocol: Using 5-FU which is known to inhibit DNA synthesis by binding to a thymidylic acid synthetase involved in the metabolism process necessary for DNA synthesis, a drug sensitivity test on a sample of Example 2 was carried out. The test was carried out by embedding the cell masses (×10 each) derived from the cancer tissue in a collagen gel (CellMatrix type IA (Nitta Gelatin Inc.):5×DMEM (Gibco; 12100-038):buffer solution for gel reconstruction (50 mM NaOH, 260 mM NaHCO3, 200 mM HEPES)=7:2:1), and culturing in 1 cc of STEMPRO serum-free medium (Gibco) for human ES cells in an incubator under the culture conditions of 37° C. and 5% CO2. In addition, 5-FU was applied at a concentration of 0.01 μg/ml, 0.1 μg/ml, 1 μg/ml, 10 μg/ml, and 100 μg/ml, and the states of the cells on days 0 and 8 after culture were compared for evaluation. An increasing rate of the area of the cell mass derived from the cancer tissue was expressed relative to 1 of an increasing rate of the area of the cell mass in the culture without application of a drug.

O=c1[nH]cc(F)c(=O)[nH]1 [5-FU] was tested. Which “proliferation of the cancer cell (increasing rate of the area of the cell mass relative to 1 for culture without drug)” value did it give?
The value was “concentration-dependently suppressed”.
